Patent US20040002080A1, “Primers for use in detecting beta-lactamases” (priority 2001, published 2004)
≈ marks a conversion by molar mass, not a printed value.

These molecules were tested on S. enterica serotype typhimurium isolate (assay: Phenotypic inhibitor-based ESBL tests (double disk potentiation with clavulanate)). Conditions: addition of clavulanate.
Assay type: cell-based, Salmonella enterica serotype Typhimurium
Description: Susceptibility testing and β-lactamase investigations. Antibiotic susceptibilities and resistance phenotypes were investigated by microdilution MIC methodology, double disk potentiation, VITEK (card GNS-424, bioMérieux, Inc. St. Louis, Mo.), NCCLS disk diffusion, and the three dimensional test (Thomson et al., Antimicrob. Agents Chemother., 35(5):1001-1003 (May 1991); and Thomson et al., Antimicrob. Agents Chemother., 36(9):1877-1882 (September 1992)).

Molecule | reversal of resistance by the addition of clavulanate
C[C@H]1[C@H](NC(=O)/C(=N\OC(C)(C)C(=O)O)c2csc(N)n2)C(=O)N1S(=O)(=O)O [aztreonam] | partially reversible

Same assay, conditions: with clavulanate

Molecule | potentiation by clavulanate (ESBL tests positive)
C[C@H]1[C@H](NC(=O)/C(=N\OC(C)(C)C(=O)O)c2csc(N)n2)C(=O)N1S(=O)(=O)O [aztreonam] | potentiation
CO/N=C(\C(=O)N[C@@H]1C(=O)N2C(C(=O)[O-])=C(C[N+]3(C)CCCC3)CS[C@H]12)c1csc(N)n1 [cefepime] | potentiation
CO/N=C(\C(=O)N[C@@H]1C(=O)N2C(C(=O)[O-])=C(C[n+]3cccc4c3CCC4)CS[C@H]12)c1csc(N)n1 [cefpirome] | potentiation

These molecules were tested against T1, beta-lactamase pI 7.4 (OXA-1 or OXA-30) (Escherichia coli, UniProt P13661) (assay: not given). Conditions: isoelectric focusing, crude preparation.
T1 construct: Crude beta-lactamase preparations derived from sonicated bacterial cultures of the S. typhimurium isolate; endogenous in cells; host or cells: Salmonella enterica serotype Typhimurium clinical stool isolate, sonicated culture
Assay type: biochemical, Salmonella enterica serotype Typhimurium

T1 sequence (P13661 26-276): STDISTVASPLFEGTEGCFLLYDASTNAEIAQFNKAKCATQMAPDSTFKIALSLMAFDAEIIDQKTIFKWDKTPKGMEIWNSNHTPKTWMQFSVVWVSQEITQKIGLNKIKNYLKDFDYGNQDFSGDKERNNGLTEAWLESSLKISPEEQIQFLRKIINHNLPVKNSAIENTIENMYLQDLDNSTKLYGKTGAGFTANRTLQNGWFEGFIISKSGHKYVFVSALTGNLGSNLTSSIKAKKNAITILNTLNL

Molecule | inhibition of beta-lactamase pI 7.4
O=C(O)[C@H]1/C(=C/CO)O[C@@H]2CC(=O)N21 [clavulanate] | inhibited
Cc1onc(-c2ccccc2Cl)c1C(=O)N[C@@H]1C(=O)N2[C@@H]1SC(C)(C)[C@@H]2C(=O)O [cloxacillin] | not

The molecules below were run on S. enterica serotype typhimurium isolate (assay: Antibiotic susceptibility testing (microdilution MIC, VITEK, NCCLS disk diffusion)). Conditions: not given.
Assay type: cell-based, Salmonella enterica serotype Typhimurium

Molecule | susceptibility category (susceptible / intermediate / resistant)
CC(C)(O/N=C(\C(=O)N[C@@H]1C(=O)N2C(C(=O)[O-])=C(C[n+]3ccccc3)CS[C@H]12)c1csc(N)n1)C(=O)O [Ceftazidime] | resistance
O=C(N[C@H](CO)[C@H](O)c1ccc([N+](=O)[O-])cc1)C(Cl)Cl [Chloramphenicol] | resistant
O=C(O)c1cn(C2CC2)c2cc(N3CCNCC3)c(F)cc2c1=O [Ciprofloxacin] | susceptible
C[C@@H](O)[C@H]1C(=O)N2C(C(=O)O)=C(S[C@@H]3CN[C@H](C(=O)N(C)C)C3)[C@H](C)[C@H]12 [Meropenem] | susceptible
C[C@H]1[C@H](NC(=O)/C(=N\OC(C)(C)C(=O)O)c2csc(N)n2)C(=O)N1S(=O)(=O)O [aztreonam] | resistance
CO/N=C(\C(=O)N[C@@H]1C(=O)N2C(C(=O)[O-])=C(C[N+]3(C)CCCC3)CS[C@H]12)c1csc(N)n1 [cefepime] | intermediate
CO/N=C(\C(=O)N[C@@H]1C(=O)N2C(C(=O)O)=C(COC(C)=O)CS[C@H]12)c1csc(N)n1 [cefotaxime] | resistance
CO[C@@]1(NC(=O)Cc2cccs2)C(=O)N2C(C(=O)O)=C(COC(N)=O)CS[C@@H]21 [cefoxitin] | resistance
Cotrimoxazole | resistant

Same assay, conditions: Salmonella enterica, read-out: MIC

Molecule | MIC [µg/mL]
C[C@@H](O)[C@H]1C(=O)N2C(C(=O)O)=C([C@H]3CCCO3)S[C@H]12 [Faropenem] | 2 (≈ 7.01 µM)

Same assay, conditions: Table 2

Molecule | MIC
NCC[C@H](O)C(=O)N[C@@H]1C[C@H](N)[C@@H](O[C@H]2O[C@H](CN)[C@@H](O)[C@H](O)[C@H]2O)[C@H](O)[C@H]1O[C@H]1O[C@H](CO)[C@@H](O)[C@H](N)[C@H]1O [Amikacin] | > 64 µg/mL
CC1(C)S[C@@H]2[C@H](NC(=O)[C@H](N)c3ccccc3)C(=O)N2[C@H]1C(=O)O [Ampicillin] | > 256 µg/mL
C=CC1=C(C(=O)O)N2C(=O)[C@@H](NC(=O)/C(=N\OCC(=O)O)c3csc(N)n3)[C@H]2SC1 [Cefixime] | > 128 µg/mL
CC=CC1=C(C(=O)O)N2C(=O)[C@@H](NC(=O)[C@H](N)c3ccc(O)cc3)[C@H]2SC1 [Cefprozil] | > 128 µg/mL
CC(C)(O/N=C(\C(=O)N[C@@H]1C(=O)N2C(C(=O)[O-])=C(C[n+]3ccccc3)CS[C@H]12)c1csc(N)n1)C(=O)O [Ceftazidime] | > 32 µg/mL
CO/N=C(\C(=O)N[C@@H]1C(=O)N2C(C(=O)O)=C(CSc3nc(=O)c(=O)[nH]n3C)CS[C@H]12)c1csc(N)n1 [Ceftriaxone] | > 128 µg/mL
CO/N=C(\C(=O)N[C@@H]1C(=O)N2C(C(=O)O)=C(COC(N)=O)CS[C@H]12)c1ccco1 [Cefuroxime] | > 256 µg/mL
CC(=O)OCC1=C(C(=O)O)N2C(=O)[C@@H](NC(=O)Cc3cccs3)[C@H]2SC1 [Cephalothin] | > 32 µg/mL
O=C(N[C@H](CO)[C@H](O)c1ccc([N+](=O)[O-])cc1)C(Cl)Cl [Chloramphenicol] | > 256 µg/mL
C[C@@H](O)[C@H]1C(=O)N2C(C(=O)O)=C([C@H]3CCCO3)S[C@H]12 [Faropenem] | 2 µg/mL (≈ 7.01 µM)
C[C@@H](O)[C@H]1C(=O)N2C(C(=O)O)=C(SCCN=CN)C[C@H]12 [Imipenem] | 0.25 µg/mL (≈ 0.835 µM)
C[C@H]1COc2c(N3CCN(C)CC3)c(F)cc3c(=O)c(C(=O)O)cn1c23 [Levofloxacin] | 0.5 µg/mL (≈ 1.38 µM)
C[C@@H](O)[C@H]1C(=O)N2C(C(=O)O)=C(S[C@@H]3CN[C@H](C(=O)N(C)C)C3)[C@H](C)[C@H]12 [Meropenem] | less than 2
NC[C@H]1O[C@H](O[C@H]2[C@H](O)[C@@H](O[C@H]3O[C@H](CO)[C@@H](O)[C@H](N)[C@H]3O)[C@H](N)C[C@@H]2N)[C@H](N)C[C@@H]1O [Tobramycin] | > 16 µg/mL
Cotrimoxazole | > 320 µg/mL
Gentamicin | > 16 µg/mL

These molecules were tested on beta-lactamase pI 8.2 (SHV-9) (assay: Isoelectric focusing with general inhibitor characteristics, crude beta-lactamase preparations). Conditions: crude preparation.
Assay type: biochemical, Salmonella enterica serotype Typhimurium
Protocol: (§1) Crude beta-lactamase preparations derived from sonicated bacterial cultures of the S. typhimurium isolate and strains producing reference beta-lactamases were assessed for beta-lactamase pls and general inhibitor characteristics by isoelectric focusing (Thomson et al., Antimicrob. Agents Chemother., 35(5):1001-1003 (May 1991).

Molecule | inhibition of beta-lactamase pI 8.2
O=C(O)[C@H]1/C(=C/CO)O[C@@H]2CC(=O)N21 [clavulanate] | inhibited

Each molecule was assayed on beta-lactamase pI>9.0 (AmpC) in the same assay as above. Conditions: crude preparation.
Assay type: biochemical, Salmonella enterica serotype Typhimurium
Protocol: as §1

Molecule | inhibition of beta-lactamase pI>9.0
O=C(O)[C@H]1/C(=C/CO)O[C@@H]2CC(=O)N21 [clavulanate] | not
Cc1onc(-c2ccccc2Cl)c1C(=O)N[C@@H]1C(=O)N2[C@@H]1SC(C)(C)[C@@H]2C(=O)O [cloxacillin] | inhibited

Each molecule was assayed against T2, beta-lactamase band of isoelectric point 9.1 (AmpC enzyme) of K. pneumoniae 249 (Klebsiella pneumoniae, UniProt Q48434) (assay: Isoelectric focusing, cefotaxime hydrolysis and inhibitor determinations in polyacrylamide gels, sonic extracts). Conditions: inhibitor 1000 mM; sonic extracts of K. pneumoniae 249, polyacrylamide gel.
T2 construct: performed using sonic extracts of K. pneumoniae 249; endogenous in cells; host or cells: Klebsiella pneumoniae strain 249 (clinical urine isolate), sonic extract
Assay type: biochemical
Protocol: The test was performed using an innoculum of approximately 5×10^5 colony forming units per square milliliter (cfu/mL^2).
The cefoxitin, ceftriaxone/clavulanate and ceftazidime/clavulanate MICs indicated two possible mechanisms of resistance, the expression of a plasmid-mediated ampC gene and/or a porin mutation. […] Three beta-lactamases were identified with isoelectric points of 5.4, 7.6, and 9.1. The band that focused at isoelectric point 9.1 hydrolyzed cefotaxime and was inhibited by cloxacillin (1000 mM), but not clavulanate (1000 mM). These findings indicated it was an AmpC enzyme.

T2 sequence (Q48434 21-381): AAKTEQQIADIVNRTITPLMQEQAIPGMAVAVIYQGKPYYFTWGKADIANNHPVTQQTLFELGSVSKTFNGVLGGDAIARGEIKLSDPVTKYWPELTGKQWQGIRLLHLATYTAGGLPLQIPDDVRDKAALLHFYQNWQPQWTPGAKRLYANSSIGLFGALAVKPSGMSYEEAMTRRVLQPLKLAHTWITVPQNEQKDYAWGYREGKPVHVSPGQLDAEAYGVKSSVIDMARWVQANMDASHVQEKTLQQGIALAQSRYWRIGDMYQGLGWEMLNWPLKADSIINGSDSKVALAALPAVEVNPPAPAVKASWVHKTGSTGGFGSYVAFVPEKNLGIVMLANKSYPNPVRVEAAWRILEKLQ

Molecule | inhibition of the band of isoelectric point 9.1
O=C(O)[C@H]1/C(=C/CO)O[C@@H]2CC(=O)N21 [clavulanate] | not
Cc1onc(-c2ccccc2Cl)c1C(=O)N[C@@H]1C(=O)N2[C@@H]1SC(C)(C)[C@@H]2C(=O)O [cloxacillin] | inhibited

Same assay, conditions: sonic extracts of K. pneumoniae 249, polyacrylamide gel

Molecule | cefotaxime hydrolysis by the band of isoelectric point 9.1
CO/N=C(\C(=O)N[C@@H]1C(=O)N2C(C(=O)O)=C(COC(C)=O)CS[C@H]12)c1csc(N)n1 [cefotaxime] | hydrolyzed

What follows are molecules tested on K. pneumoniae strain 249 (assay: Overnight microdilution susceptibility test (MicroScan panels, NCCLS criteria)). Conditions: Klebsiella pneumoniae, K. pneumoniae 249, combinations as drug/clavulanate, read-out: Minimum Inhibitory Concentrations (MICs).
Assay type: cell-based
Protocol: Susceptibility tests were performed on K. pneumoniae 249 by an overnight microdilution method with investigational dehydrated panels provided by Dade Behring MicroScan (Sacramento, Calif.) according to the manufacturer's recommendations and interpreted according to National Committee for Clinical Laboratory Standards (NCCLS) criteria and by NCCLS disc diffusion (National Committee for Clinical Laboratory Standards (NCCLS), “Methods for Dilution Antimicrobial Susceptibility Tests for Bacteria that Grow Aerobically: Approved Standard M7-A4,” Villanova, Pa. (1997); and Hanson et al., J. Antimicrob. Chemother., 44(3):377-380 (September 1999)). The test was performed using an innoculum of approximately 5×10^5 colony forming units per square milliliter (cfu/mL^2). Isoelectric focusing (IEF), cefotaxime hydrolysis and inhibitor determinations in polyacrylamide gels were performed using sonic extracts of K. pneumoniae 249 (Thomson et al., Antimicrob. Agents Chemother., 35:1001-1003 (1991)).

Molecule | MIC [µg/mL]
CC1(C)S[C@@H]2[C@H](NC(=O)[C@H](N)c3ccccc3)C(=O)N2[C@H]1C(=O)O [Ampicillin] | > 16
CC(C)(O/N=C(\C(=O)N[C@@H]1C(=O)N2C(C(=O)[O-])=C(C[n+]3ccccc3)CS[C@H]12)c1csc(N)n1)C(=O)O [Ceftazidime] | 16
CO/N=C(\C(=O)N[C@@H]1C(=O)N2C(C(=O)O)=C(CSc3nc(=O)c(=O)[nH]n3C)CS[C@H]12)c1csc(N)n1 [Ceftriaxone] | 16
CC(=O)OCC1=C(C(=O)O)N2C(=O)[C@@H](NC(=O)Cc3cccs3)[C@H]2SC1 [Cephalothin] | > 16
C[C@@H](O)[C@H]1C(=O)N2C(C(=O)O)=C(S[C@@H]3CN[C@H](C(=O)N(C)C)C3)[C@H](C)[C@H]12 [Meropenem] | ≤ 0.5
CO/N=C(\C(=O)N[C@@H]1C(=O)N2C(C(=O)[O-])=C(C[N+]3(C)CCCC3)CS[C@H]12)c1csc(N)n1 [cefepime] | ≤ 4
CO[C@@]1(NC(=O)Cc2cccs2)C(=O)N2C(C(=O)O)=C(COC(N)=O)CS[C@@H]21 [cefoxitin] | > 32
COCC1=C(C(=O)O)N2C(=O)[C@@H](NC(=O)/C(=N\OC)c3csc(N)n3)[C@H]2SC1 [cefpodoxime] | > 4
CCN1CCN(C(=O)N[C@@H](C(=O)N[C@@H]2C(=O)N3[C@@H]2SC(C)(C)[C@@H]3C(=O)O)c2ccccc2)C(=O)C1=O [piperacillin] | > 64
CC1(C)S[C@@H]2[C@H](NC(=O)[C@H](C(=O)O)c3ccsc3)C(=O)N2[C@H]1C(=O)O [ticarcillin] | > 64
